According to patent US7618958B2, “Stereospecific anxiolytic and anticonvulsant agents with reduced muscle-relaxant, sedative-hypnotic and ataxic effects” (WISYS Technology Foundation, Inc., priority 2004, dated 2009):

Test system: male Wistar rats
Test: Elevated plus-maze in rats
Format: in vivo, rat
Conditions: for Open Entries / Closed Entries / Total Distance Travelled (m) / Total Entries / % Open Time / % Open Entries / Time in open arms / Time in closed arms: rats, mean; for Open Entries: SOLVENT mean 2.57; for Closed Entries: SOLVENT mean 7.14; for Total Distance Travelled (m): SOLVENT mean 9.30; for Total Entries: SOLVENT mean 9.71; for % Open Time: SOLVENT mean 20.43; for % Open Entries: SOLVENT mean 25.57; for Time in open arms: SOLVENT mean 50.29; for Time in closed arms: SOLVENT mean 196.29
Description: Except where noted, the methods used were those of Miroslav M., et al., (2004) Pharmacology, Biochemistry and Behavior 79: 279-290. Experiments were carried out on male Wistar rats (Military Farm, Belgrade, Serbia and Montenegro), weighing 200-240 g. All procedures in the study conformed to EEC Directive 86/609 and were approved by the Ethical Committee on Animal Experimentation of the Medical Faculty in Belgrade. The rats were housed in transparent plastic cages, six animals per cage, and had free access to pelleted food and tap water before and after drug administration. The temperature of the animal room was 22±1° C., the relative humidity 40-70%, the illumination 120 1× and the 12/12-h light/dark period (light on at 06:00 h). All handling and testing took place during the light portion of the cycle. Throughout the study the animals were used only once.
Midazolam and flumazenil were generously donated from F. Hoffman-La Roche (Basel, Switzerland). Zolpidem was purchased from Toronto Research Chemicals (North York, Canada) and DMCM from Research Biochemicals (Natick, Mass., USA). All drugs were dissolved/suspended with the aid of sonication in a solvent containing 85% distilled water, 14% propylene glycol and 1% Tween 80™, and were administered intraperitoneally, in a volume of 1 ml/kg, 20 min before testing. Doses are expressed as the base forms of the drugs. In the cases of combined treatment, agonists were administered at separate sites, immediately after the antagonist. Each animal received a total volume of 2 ml/kg of compounds tested or appropriate vehicles, at two different injection sites.
The test apparatus was constructed of sheet metal, with a black rubber floor. It consisted of a maze elevated to a height of 50 cm with two open (50×10 cm) and two enclosed arms (50×10×40 cm), connected by junction area (central platform) measured 10×10 cm. Although the floor was rubberized, a ledge of sheet metal (0.3 cm high) surrounding the open arms was added, to avoid rats falling off. The illumination in the experimental room consisted of one red neon tube fixed on the ceiling, giving light intensity of 10 1× on the surface of the arms. The experiments were carried out during the diurnal phase (between 08:00 and 12:00 h). At the beginning of the experiment, rats were placed in the centre of the maze, facing one of the enclosed arms and observed for 5 min. The observer sat in the same room 1 m from the maze. After each trial, the maze was cleaned with dry and wet towels. Throughout the study, the number of rats per treatment group was 8-14. Each experiment was run over 4 consecutive days, with three control rats per day; as there was no difference in plus-maze activity among control subgroups, they were pooled in a single control group (n=12).
All numerical data presented in the figures were given as the mean±S.E.M. Each dose-response curve (agonist or antagonist alone or agonist+antagonist) was assessed by a one-way ANOVA. If the ANOVA was significant, each treatment condition was compared with the appropriate solvent control by a Dunnett's test (a=0.05). In case of significant effect in the number of enclosed arm entries, an analysis of covariance (ANCOVA) was performed in the anxiety-related parameters using the number of enclosed arm entries as covariate. Interactions between the agonists and antagonists were analyzed separately with a two-way ANOVA [factors: agonist dose versus cotreatment (an antagonist or saline)]; pairwise comparisons for the assessment of the antagonist influence on the agonist effects were conducted by Tukey's test, one of the methods recommended even in the absence of an overall significant F-test (Wilcox R R. New designs in analysis of variance. Annu Rev Psychol 1987; 38: 29-60). Statistical analyses were performed with commercial statistical software for PC, Stat for Windows R. 5.0.

[1] = SH-053-S 20 mg/kg ip, N 6, t test p = 0.668
[2] = SH-053-S 30 mg/kg ip, N 7, t test p ≦ 0.05

C#Cc1ccc2c(c1)C(c1ccccc1)=NC(C)c1c(C(=O)OCC)ncn1-2 (stereo not drawn) [SH-053-S—CH3, 8-Ethynyl-4-methyl-6-phenyl-4H-2,5,10b-triaza-benzo[e]azulene-3-carboxylic acid ethyl ester]
Open Entries [1]: 3.00 | Closed Entries (SH-053-S 20 mg/kg ip, N 6, t test p = 0.059): 5.33 | Total Distance Travelled (m) (SH-053-S 20 mg/kg ip, N 6, t test p = 0.145): 7.49 m | Total Entries (SH-053-S 20 mg/kg ip, N 6, t test p = 0.349): 8.33 | % Open Time (SH-053-S 20 mg/kg ip, N 6, t test p = 0.426): 27.50% | % Open Entries (SH-053-S 20 mg/kg ip, N 6, t test p = 0.265): 34.17% | Time in open arms [1]: 61.83 | Time in closed arms (SH-053-S 20 mg/kg ip, N 6, t test p ≦ 0.05): 144.67 | Open Entries [2]: 4.57 | Closed Entries (SH-053-S 30 mg/kg ip, N 7, t test p = 0.481): 6.29 | Total Distance Travelled (m) (SH-053-S 30 mg/kg ip, N 7, t test p = 0.910): 9.48 m | Total Entries (SH-053-S 30 mg/kg ip, N 7, t test p = 0.525): 10.86 | % Open Time [2]: 36.00% | % Open Entries [2]: 43.71% | Time in open arms [2]: 93.71 | Time in closed arms (SH-053-S 30 mg/kg ip, N 7, t test p = 0.116): 164.71 | effects on locomotor activity (summary of FIG. 1, FIG. 2, Tables 3-6) (at the dose tested): no measurable effects on locomotor activity | anxiolytic activity (summary of FIG. 1, FIG. 2, Tables 3-6) (rat, in vivo): has anxiolytic activity
